Assays:
rat MCH1R = rat MCH1R (Rattus norvegicus, UniProt P97639); test: MCH-induced Ca2+ mobilization (FLIPR) in HEK 293T cells expressing rat MCH1R; type: cell-based; conditions: HEK 293T cell expressing rat MCH1R; read-out: EC50 for stimulation of Ca2+ mobilization
rats = test: MCH-induced food intake after icv administration; type: in vivo, rat; conditions: 2 nmol icv
Experimental: To determine inhibitory effects of TPI 1361-17 on MCH-induced food intake, rats were habituated to a wire bottom cage for more than 3 weeks prior to the experiment. Experiments were carried out from 6 a.m. to 7 a.m. when rats were satiated. […] On the other hand, five nmol of TPI 1361-17 suppressed cumulative food intake by 75% even at 4h (FIG. 5B).
To determine the effects of TPI 1361-17 on MCH-induced food intake, rats were randomly divided into three groups: 1) TPI 1361-17 (dissolved in DMSO) and 2 nmol of MCH; 2) MCH 2 nmol, 3) ACSF. Each mixture contained a DMSO equivalent concentration to that of the antagonist solution (up to 5% (v/v)). Ten μl of each solution was administered into lateral ventricle for 2 minutes. The injections were done between 7:00-8:00 a.m., and food intake was monitored for 4 h after the injection.
For animal studies, adult male Sprague-Dawley rats weighing 200-300g were obtained from Charles River Laboratories (Wilmington, Mass.), bearing a 23-gauge stainless steel cannula placed into the right lateral ventricle. Rats were housed individually and maintained on a 12 h light-dark cycle (6:00 am-6:00 pm light) with free access to tap water and rat chaw (PROLAB RMH 2500, containing 23.0% protein, 4.5% fat, gross energy 4.5 kcal/g. PMI nutrition international, LLC. Brentwood, Mo.). Prior to all studies, rats were handled and habituated for 7 days, and 10 μl of artificial cerebrospinal fluid (ACSF: NaCl 124, KCl 5, CaCl2 2.4 MgSO4 2, KH2PO4 1.25, NaHCO3 26 and glucose 10, in mM) was injected through the cannula to minimize stress effects at the time of the experiment. Cannula placement was confirmed in all animals by evaluating the response to 50 ng of angiotensin II. Only animals drinking more than 5 ml of water in 1 h were used in feeding studies.

rat MCH1R, sequence (P97639 whole entry): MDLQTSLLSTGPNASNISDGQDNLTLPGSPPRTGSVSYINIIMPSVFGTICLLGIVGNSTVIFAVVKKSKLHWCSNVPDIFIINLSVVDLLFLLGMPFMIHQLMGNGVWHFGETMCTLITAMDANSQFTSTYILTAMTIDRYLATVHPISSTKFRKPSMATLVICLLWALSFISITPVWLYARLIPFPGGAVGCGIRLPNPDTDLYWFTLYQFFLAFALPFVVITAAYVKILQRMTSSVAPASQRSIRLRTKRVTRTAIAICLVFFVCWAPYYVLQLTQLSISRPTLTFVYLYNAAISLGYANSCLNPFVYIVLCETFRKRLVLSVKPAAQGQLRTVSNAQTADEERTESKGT

**Q.** Which results are given for `CSCC[C@@H]1NC(=O)[C@@H](NC(=O)[C@H](CCCNC(=N)N)NC(=O)[C@H](CC(C)C)NC(=O)[C@H](CCSC)NC(=O)[C@H](CC(=O)O)NC(=O)[C@H](Cc2ccccc2)NC(=O)[C@@H](N)CC(=O)O)CSSC[C@@H](C(=O)N[C@@H](Cc2c[nH]c3ccccc23)C(=O)N[C@@H](CCC(N)=O)C(=O)N[C@H](C(=O)O)C(C)C)NC(=O)[C@@H]2CCCN2C(=O)[C@H](CCCNC(=N)N)NC(=O)[C@H](Cc2ccc(O)cc2)NC(=O)[C@H](C(C)C)NC(=O)[C@H](CCCNC(=N)N)NC(=O)CNC(=O)[C@H](CC(C)C)NC1=O` [MCH, reference compound]?
**A.** EC50 (rat MCH1R): 0.9 nM; Feeding in satiated rats (rats): induced rapid and robust feeding

Reference: patent US8372848B2, “Melanin-concentrating hormone receptor antagonists and methods of use” (Mixture Sciences, Inc., priority 2004, dated 2013)
